Reference: patent US20230108906A1, “SUBSTITUTED BICYCLIC AND TRICYCLIC UREAS AND AMIDES, ANALOGUES THEREOF, AND METHODS USING SAME” (Arbutus Biopharma Corporation, priority 2019, published 2023)
pEC50: −log10 of the molar value.

Test system: HBV rcDNA in HepDE19 cells
Test: HepDE19 assay with bDNA quantitation of HBV rcDNA
Type: cell-based, hepatitis B virus (HBV)
Details: Hepatitis B virus, HepDE19, 168 h, inhibition of rcDNA formation in HepDE19 cells (HepG2 derived), Tet-free medium, 7 day incubation, Quantigene 2.0 bDNA readout, top concentration 25 μM; read-out: DE-19bDNA EC50
Procedure, shortened: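 HepDE19 cells (HepG2-derived, Tet-regulated HBV) switched to Tet-free medium, then treated 7 days at 37 °C with compound, 8-point titration from 25 μM, 0.5% DMSO. rcDNA quantified by bDNA with HBV probes; EC50/EC90 via 4-parameter fit. Viability (CC50) by CellTiter-Glo ATP on 5,000 cells/well after 4 days.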

| SMILES | pEC50 |
| --- | --- |
| CN(C(=O)Nc1ccc(F)c(Cl)c1)C1CS(=O)(=O)Cc2[nH]c(=O)c3cc(F)ccc3c21 (single isomer, unassigned) [Compound 197, 3-(3-Chloro-4-fluorophenyl)-1-(8-fluoro-3,3-dioxido-6-oxo-1,4,5,6-tetrahydro-2H-thiopyrano[3,4-c]isoquinolin-1-yl)-1-methylurea] | 5.64 |
| CN(C(=O)Nc1ccc(F)c(Cl)c1)C1CS(=O)(=O)Cc2[nH]c(=O)c3cc(F)c(F)cc3c21 (single isomer, unassigned) [Compound 203, 3-(3-Chloro-4-fluorophenyl)-1-(8,9-difluoro-3,3-dioxido-6-oxo-1,4,5,6-tetrahydro-2H-thiopyrano[3,4-c]isoquinolin-1-yl)-1-methylurea] | 5.85 |
| CN(C(=O)Nc1ccc(F)c(C#N)c1)C1CS(=O)(=O)Cc2[nH]c(=O)c3cc(F)c(F)cc3c21 (single isomer, unassigned) [Compound 205, 3-(3-Cyano-4-fluorophenyl)-1-(8,9-difluoro-3,3-dioxido-6-oxo-1,4,5,6-tetrahydro-2H-thiopyrano[3,4-c]isoquinolin-1-yl)-1-methylurea] | 5.14 |

Same assay, conditions: inhibition of rcDNA formation in HepDE19 cells (HepG2 derived), Tet-free medium, 7 day incubation, Quantigene 2.0 bDNA readout, top concentration 25 μM; read-out: DE-19bDNA EC50

| SMILES | pEC50 |
| --- | --- |
| CN(C(=O)Nc1ccc(F)c(F)c1)C1CNCc2[nH]c(=O)c3cc(F)c(F)cc3c21 (single isomer, unassigned) [Compound 192, 1-(8,9-Difluoro-6-oxo-1,2,3,4,5,6-hexahydrobenzo[c][1,7]naphthyridin-1-yl)-3-(3,4-difluorophenyl)-1-methylurea] | 7.40 |
| CN(C(=O)Nc1ccc(F)c(Cl)c1)C1C[S+]([O-])Cc2[nH]c(=O)c3cc(F)ccc3c21 (single isomer, unassigned) [Compound 194, 3-(3-Chloro-4-fluorophenyl)-1-(8-fluoro-3-oxido-6-oxo-1,4,5,6-tetrahydro-2H-thiopyrano[3,4-c]isoquinolin-1-yl)-1-methylurea] | ≤ 4.60 |
| CN(C(=O)Nc1ccc(F)c(Cl)c1)C1C[S+]([O-])Cc2[nH]c(=O)c3cc(F)ccc3c21 (single isomer, unassigned) [Compound 195] | 6.05 |
| CN(C(=O)Nc1ccc(F)c(Cl)c1)C1C[S+]([O-])Cc2[nH]c(=O)c3cc(F)ccc3c21 (single isomer, unassigned) [Compound 196, 3-(3-Chloro-4-fluorophenyl)-1-(8-fluoro-3-oxido-6-oxo-1,4,5,6-tetrahydro-2H-thiopyrano[3,4-c]isoquinolin-1-yl)-1-methylurea] | 4.66 |
| CN(C(=O)Nc1ccc(F)c(Cl)c1)C1CS(=O)(=O)Cc2[nH]c(=O)c3cc(F)ccc3c21 (single isomer, unassigned) [Compound 198, 3-(3-Chloro-4-fluorophenyl)-1-(8-fluoro-3,3-dioxido-6-oxo-1,4,5,6-tetrahydro-2H-thiopyrano[3,4-c]isoquinolin-1-yl)-1-methylurea] | 5.43 |
| CN(C(=O)Nc1ccc(F)c(C#N)c1)C1C[S+]([O-])Cc2[nH]c(=O)c3cc(F)ccc3c21 (single isomer, unassigned) [Compound 199, 3-(3-Cyano-4-fluorophenyl)-1-(8-fluoro-3-oxido-6-oxo-1,4,5,6-tetrahydro-2H-thiopyrano[3,4-c]isoquinolin-1-yl)-1-methylurea] | 4.70 |
| CN(C(=O)Nc1ccc(F)c(C#N)c1)C1C[S+]([O-])Cc2[nH]c(=O)c3cc(F)ccc3c21 (single isomer, unassigned) [Compound 200, 3-(3-Cyano-4-fluorophenyl)-1-(8-fluoro-3-oxido-6-oxo-1,4,5,6-tetrahydro-2H-thiopyrano[3,4-c]isoquinolin-1-yl)-1-methylurea] | ≤ 4.60 |
| CN(C(=O)Nc1ccc(F)c(C#N)c1)C1C[S+]([O-])Cc2[nH]c(=O)c3cc(F)ccc3c21 (single isomer, unassigned) [Compound 201, 3-(3-Cyano-4-fluorophenyl)-1-(8-fluoro-3-oxido-6-oxo-1,4,5,6-tetrahydro-2H-thiopyrano[3,4-c]isoquinolin-1-yl)-1-methylurea] | 5.44 |
| CN(C(=O)Nc1ccc(F)c(C#N)c1)C1C[S+]([O-])Cc2[nH]c(=O)c3cc(F)ccc3c21 (single isomer, unassigned) [Compound 202, 3-(3-Cyano-4-fluorophenyl)-1-(8-fluoro-3-oxido-6-oxo-1,4,5,6-tetrahydro-2H-thiopyrano[3,4-c]isoquinolin-1-yl)-1-methylurea] | ≤ 4.60 |
| CN(C(=O)Nc1ccc(F)c(Cl)c1)C1CS(=O)(=O)Cc2[nH]c(=O)c3cc(F)c(F)cc3c21 (single isomer, unassigned) [Compound 204, 3-(3-Chloro-4-fluorophenyl)-1-(8,9-difluoro-3,3-dioxido-6-oxo-1,4,5,6-tetrahydro-2H-thiopyrano[3,4-c]isoquinolin-1-yl)-1-methylurea] | 5.85 |
| CN(C(=O)Nc1ccc(F)c(C#N)c1)C1CS(=O)(=O)Cc2[nH]c(=O)c3cc(F)c(F)cc3c21 (single isomer, unassigned) [Compound 206, 3-(3-Cyano-4-fluorophenyl)-1-(8,9-difluoro-3,3-dioxido-6-oxo-1,4,5,6-tetrahydro-2H-thiopyrano[3,4-c]isoquinolin-1-yl)-1-methylurea] | 5.32 |
| CN(C(=O)Nc1ccc(F)c(Cl)c1)C1C[S+]([O-])Cc2[nH]c(=O)c3cc(F)c(F)cc3c21 (single isomer, unassigned) [Compound 207, 3-(3-Chloro-4-fluorophenyl)-1-(8,9-difluoro-3-oxido-6-oxo-1,4,5,6-tetrahydro-2H-thiopyrano[3,4-c]isoquinolin-1-yl)-1-methylurea] | 5.89 |
| CN(C(=O)Nc1ccc(F)c(Cl)c1)C1C[S+]([O-])Cc2[nH]c(=O)c3cc(F)c(F)cc3c21 (single isomer, unassigned) [Compound 208, 3-(3-Chioro-4-fluorophenyl)-1-(8,9-difluoro-3-oxido-6-oxo-1,4,5,6-tetrahydro-2H-thiopyrano[3,4-c]isoquinolin-1-yl)-1-methylurea] | 5.07 |
| CN(C(=O)Nc1ccc(F)c(Cl)c1)C1C[S+]([O-])Cc2[nH]c(=O)c3cc(F)c(F)cc3c21 (single isomer, unassigned) [Compound 209, 3-(3-Chloro-4-fluorophenyl)-1-(8,9-difluoro-3-oxido-6-oxo-1,4,5,6-tetrahydro-2H-thiopyrano[3,4-c]isoquinolin-1-yl)-1-methylurea] | 6.15 |
| CN(C(=O)Nc1ccc(F)c(Cl)c1)C1C[S+]([O-])Cc2[nH]c(=O)c3cc(F)c(F)cc3c21 (single isomer, unassigned) [Compound 210, 3-(3-Chloro-4-fluorophenyl)-1-(8,9-difluoro-3-oxido-6-oxo-1,4,5,6-tetrahydro-2H-thiopyrano[3,4-c]isoquinolin-1-yl)-1-methylurea] | 5.15 |
| CN(C(=O)Nc1ccc(F)c(C#N)c1)C1C[S+]([O-])Cc2[nH]c(=O)c3cc(F)c(F)cc3c21 (single isomer, unassigned) [Compound 211, 3-(3-Cyano-4-fluorophenyl)-1-(8,9-difluoro-3-oxido-6-oxo-1,4,5,6-tetrahydro-2H-thiopyrano[3,4-c]isoquinolin-1-yl)-1-methylurea] | 5.26 |
| CN(C(=O)Nc1ccc(F)c(C#N)c1)C1C[S+]([O-])Cc2[nH]c(=O)c3cc(F)c(F)cc3c21 (single isomer, unassigned) [Compound 212, 3-(3-Cyano-4-fluorophenyl)-1-(8,9-difluoro-3-oxido-6-oxo-1,4,5,6-tetrahydro-2H-thiopyrano[3,4-c]isoquinolin-1-yl)-1-methylurea] | ≤ 4.60 |
| CN(C(=O)Nc1ccc(F)c(C#N)c1)C1C[S+]([O-])Cc2[nH]c(=O)c3cc(F)c(F)cc3c21 (single isomer, unassigned) [Compound 213, 3-(3-Cyano-4-fluorophenyl)-1-(8,9-difluoro-3-oxido-6-oxo-1,4,5,6-tetrahydro-2H-thiopyrano[3,4-c]isoquinolin-1-yl)-1-methylurea] | 6.00 |
| CN(C(=O)Nc1ccc(F)c(C#N)c1)C1C[S+]([O-])Cc2[nH]c(=O)c3cc(F)c(F)cc3c21 (single isomer, unassigned) [Compound 214, 3-(3-Cyano-4-fluorophenyl)-1-(8,9-difluoro-3-oxido-6-oxo-1,4,5,6-tetrahydro-2H-thiopyrano[3,4-c]isoquinolin-1-yl)-1-methylurea] | 4.82 |
| CN(C(=O)Nc1ccc(F)c(C(F)F)c1)C1CNCc2[nH]c(=O)c3cc(F)c(F)cc3c21 (single isomer, unassigned) [Compound 216, 1-(8,9-Difluoro-6-oxo-1,2,3,4,5,6-hexahydrobenzo[c][1,7]naphthyridin-1-yl)-3-(3-(difluoromethyl)-4-fluorophenyl)-1-methylurea] | 5.46 |
| CN(C(=O)Nc1ccc(F)c(C(F)F)c1)C1CNCc2[nH]c(=O)c3cc(F)c(F)cc3c21 (single isomer, unassigned) [Compound 217, 1-(8,9-Difluoro-6-oxo-1,2,3,4,5,6-hexahydrobenzo[c][1,7]naphthyridin-1-yl)-3-(3-(difluoromethyl)-4-fluorophenyl)-1-methylurea] | 7.40 |
| CN(C(=O)N1Cc2ccccc2C1)C1CNCc2[nH]c(=O)c3cc(F)c(F)cc3c21 (single isomer, unassigned) [Compound 222, N-(8,9-Difluoro-6-oxo-1,2,3,4,5,6-hexahydrobenzo[c][1,7]naphthyridin-1-yl)-N-methylisoindoline-2-carboxamide] | ≤ 4.60 |
| CN(C(=O)N1Cc2ccccc2C1)C1CNCc2[nH]c(=O)c3cc(F)c(F)cc3c21 (single isomer, unassigned) [Compound 223, N-(8,9-Difluoro-6-oxo-1,2,3,4,5,6-hexahydrobenzo[c][1,7]naphthyridin-1-yl)-N-methylisoindoline-2-carboxamide] | 5.64 |
